Where “and” joins values, the source holds several entries; their conditions need not be identical. Equal values may be shown once. Read-outs that look alike come from different tables or passages of the source.
Assays:
[1] = tested on: hypoxic-induced pulmonary hypertension; details: for decrease in pulmonary artery pressure from hypoxic level: FiO2 0.12, nebulized 270 μmol/minute for 20 minutes, n=7
hemoglobin = hemoglobin (Homo sapiens, UniProt P68871+P69905)
[2] = tested on: hypoxic-induced pulmonary hypertension; test: Comparison of inhaled nitrite and NO gas during hypoxic-induced pulmonary vasoconstriction: efficacy and duration; format: in vivo, newborn lambs; details: for reduction (correction) of hypoxic-induced pulmonary hypertension: hypoxia, NO gas 20 ppm or nitrite aerosol for 20 minutes
Excerpt: NO gas was introduced into the inspiratory limb of the breathing circuit. The inspired concentration of NO was continuously measured by chemiluminescence (CLD 700 AL, Eco Physics Inc, Ann Arbor, Mich.) in the inspiratory limb of the ventilator loop.
efficacy and duration of effect. This protocol was designed to compare the efficacy of nitrite with the clinical standard, 20 ppm inhaled NO gas. […] A second purpose was to determine the duration of effect of a short nitrite nebulization versus NO gas inhalation on hemodynamic and physiological measurements during prolonged hypoxic-induced pulmonary vasoconstriction. After baseline measurements were performed, the lambs were made hypoxic as described above for 35 minutes. Ten minutes after initiation of hypoxia, a 20-minute period of NO gas inhalation was initiated (20 ppm), with continuation of hypoxia for 5 minutes after cessation of NO gas delivery. Lambs were then allowed to recover for one hour. Again, after baseline measurements were made, a second 90-minute period of hypoxia was initiated.

forearm circulation = test: Sodium nitrite infusion into the brachial artery, forearm blood flow by venous-occlusion plethysmography
Excerpt: (§1) The protocol was approved by the Institutional Review Board of the National Heart, Lung and Blood Institute, and informed consent was obtained from all volunteer subjects. […] An additional 10 subjects returned three-six months later for a second series of experiments with low dose nitrite infusion. […] No volunteer subject was allowed to take any medication (oral contraceptive agents allowed), vitamin supplements, herbal preparations, nutriceuticals or other “alternative therapies” for at least one month prior to study and were not be allowed to take aspirin for one week prior to study.
(§2) Brachial artery and antecubital vein catheters were placed into the arm, with the intraarterial catheter connected to a pressure transducer for blood pressure measurements and an infusion pump delivering normal saline at 1 mL/min. After 20 minutes of rest, baseline arterial and venous blood samples were obtained and forearm blood flow measurements were made by strain gauge venous-occlusion plethysmography, as previously reported (Panza et al., Circulation, 87, 1468-74, 1993). A series of 7 blood flow measurements were averaged for each blood flow determination. A series of measurements termed Parts I and II were performed in randomized order to minimize a time effect on the forearm blood flow response during nitrite infusion.
(§3) Part I: Following 20 minutes of 0.9% NaCl (saline) solution infusion at 1 mL/min into the brachial artery, arterial and venous blood samples were obtained for the assays described below and forearm blood flow measured. Exercise was performed by repetitive hand-grip at one-third of the predetermined maximum grip strength using a hand-grip dynamometer (Technical Products Co.) (Gladwin et al., Proc Natl Acad Sci USA, 97, 9943-8, 2000; Gladwin et al., Proc Natl Acad Sci USA, 97, 11482-11487, 2000; Cannon et al., J Clin Invest, 108, 279-87, 2001). Each contraction lasted for 10 seconds followed by relaxation for 5 seconds. Following 5 minutes of exercise, forearm blood flow measurements were obtained during relaxation phases of exercise, and arterial and venous samples collected. Following a 20-minute rest period with continued infusion of saline into the brachial artery, repeated baseline blood samples and forearm blood flow measurements were obtained. L-NMMA was then infused at a rate of 1 mL/min (8 μmol/min) into the brachial artery. Following 5 minutes of L-NMMA infusion, forearm blood flow was measured, and arterial and venous blood samples obtained. Forearm exercise was then initiated in that arm during continued L-NMMA infusion. Forearm blood flow was measured and blood samples obtained after 5 minutes of exercise during continued L-NMMA infusion (FIG. 1).
(§4) Part II: After a 30 minute rest period with continued infusion of saline, baseline measurements were obtained, the saline infusion was then stopped, and infusion of nitrite (NaNO2 36 μmol/ml in 0.9% saline) at 1 ml/min was started. […] For the final 9 subjects studied, 0.01-0.03 mM sodium bicarbonate was added to the normal saline, so as to titrate pH to 7.0-7.4. The nitrite solution was light protected and nitrite levels and free NO gas in solution measured by reductive chemiluminescence after all experiments (Gladwin et al., J Biol Chem, 21, 21, 2002).

[3] = as above; details: human, in vivo
Excerpt: as §1, §2, §3, §4

aortic ring preparations = details: cited from earlier work
[4] = tested on: U46619-induced normoxic pulmonary hypertension; format: in vivo; details: normoxic, U46619 infusion, nebulized nitrite, n=6
[5] = 200 μM regional concentration, transit time less than 10 seconds

## O=NO [sodium nitrite]
[1]
  decrease in pulmonary artery pressure from hypoxic level: ~60%
[1]; listed as nitrite
  decrease in pulmonary artery pressure from hypoxic level: ~60% and 63+/−3%
[1]; versus preceding ten minutes of hypoxia
  cardiac output, arterial oxyhemoglobin saturation and methemoglobin levels: did not change measurably
hemoglobin; 36 μmol/min, at rest, baseline 55.7±11.4
  iron-nitrosylated-hemoglobin in the ipsilateral antecubital vein during nitrite infusion: 693.4 ± 216.9 nM
hemoglobin; [5]
  SNO-Hb produced across the forearm during exercise: ~200 nM
  iron-nitrosyl-hemoglobin produced across the forearm during exercise: approximately 750 nM
[2]; baseline 2.1±0.1
  methemoglobin concentration after nitrite nebulization: 2.8±0.2%
[2]; hypoxia continued 60 minutes after nebulization
  duration of sustained vasodilation after discontinuation of inhalation: more than 60 minutes
[2]
  reduction (correction) of hypoxic-induced pulmonary hypertension: about 60%
[2]; listed as nitrite
  reduction (correction) of hypoxic-induced pulmonary hypertension: 60-70%
Forearm circulation; 360 nmoles per minute
  increase in blood flow, low dose: about 22%
Forearm circulation; 400 nmol/mL at 1 mL/min for five minutes, 10 subjects, baseline 3.49±0.24
  forearm blood flow after low-dose nitrite infusion: 4.51±0.33 ml/min per 100 mL tissue
Forearm circulation; 36 μmol/min into brachial artery
  systemic level of nitrite (contralateral arm): 16 µM
Forearm circulation; 36 μmol/min into brachial artery, systemic nitrite 16 μM
  decrease of mean blood pressure: approximately 7 mm Hg
Forearm circulation; 36 μmol/min, 5 min, at rest
  venous hemoglobin oxygen saturation, pO2 and pH versus pre-infusion values: significantly increased
Forearm circulation; dose reduced 2-logs (360 nmoles per minute)
  forearm nitrite concentration, low dose, at rest: 2 µM
Forearm circulation; dose reduced 2-logs, exercise
  forearm nitrite concentration, low dose, during exercise: 0.9 µM
Forearm circulation; low dose, exercise
  venous nitrite level after low-dose infusion, during exercise: 909 ± 113 nM
Forearm circulation; saline for 30 min after infusion, pre-nitrite value 3.94±0.38
  forearm blood flow 30 minutes after cessation of nitrite infusion: 4.79±0.37 mL/min per 100 mL tissue
Forearm circulation; saline for 30 min after infusion, pre-nitrite value 89.2±3.5
  systemic blood pressure 30 minutes after cessation of nitrite infusion: 82.1±3.7 mm Hg
[3]; both, 36 μmol/min, nitrite level in the ipsilateral antecubital vein (regional forearm nitrite concentration), 36 μmol/min into brachial artery, 5 min, 18 healthy subjects
  concentration at 5 min: ~222000 nM
[3]; 0.36 μmol/min, mean venous nitrite level after low-dose infusion, at rest, low dose, five-minute infusion, baseline 176±17
  concentration at 5 min: 2560 ± 462 nM
[3]; 360 nmoles per minute, forearm nitrite concentration, low dose, at rest, dose reduced 2-logs (360 nmoles per minute)
  concentration at 5 min: ~2000 nM
Aortic ring preparations; Furchgott et al. 1953
  nitrite concentration that stimulated vasodilation of aortic ring preparations: 100 µM
Aortic ring preparations; literature
  levels of nitrite shown to vasodilate in vitro: > 100,000 nM
[4]
  decrease in pulmonary artery pressure from infusion baseline: 23±6%
